The record followed here is publication PMC12040169 (PLOS Biology, 2025).

One data set can be described thus: in vitro. More on the design: Viability of infected HeLa host cells, resazurin conversion, bulk resorufin fluorescence relative to DMSO. The note with it: human, hela cells; bulk resorufin, mean of 2.
Data set [1] has as its system T1, CTL2-GFP (C. trachomatis L2/434/Bu, GFP-expressing).
T1 construct: L2/434/Bu, GFP-expressing
Briefly: microbe, parasite or virus in culture. More on the design: Intracellular C. trachomatis growth in HeLa cells, bulk GFP fluorescence relative to DMSO. The note with it: Chlamydia trachomatis, HeLa, 28.5 h; bulk GFP, mean of 2; read-out: % of control remaining. How it is done:
MICs were calculated as described above.

Data set [2] relates to T2, C. trachomatis L2/434/Bu expressing GFP (CTL2-GFP).
T2 construct: L2/434/Bu GFP intracellular growth in HeLa cells
Put plainly: microbe, parasite or virus in culture. More on the design: C. trachomatis total inclusion area by high-content imaging, normalised to DMSO. The note with it: Chlamydia trachomatis, HeLa, 28.5 h; total inclusion area; read-out: % of control remaining. The source says: We screened a library of 36,785 small molecules displaying drug-like properties and covering a wide chemical space (Fig 1A and S2A Data). In this process, we also complemented the assay described above with an imaging-based readout (Fig 1B). After measurements of bulk GFP and resorufin fluorescence, cells were fixed, stained with the DNA dye Hoechst, and imaged at a high-content imaging platform to detect chlamydial inclusions (GFP) and host cell nuclei (Hoechst). The total area and number of inclusions in individual wells and the number of nuclei then served as additional proxies for chlamydial growth and host cell viability. […] MICs were calculated as described above.

`Cc1noc(NS(=O)(=O)c2ccc(NC(=O)COc3ccc(Cl)cc3Cl)cc2)c1C` [CBK262142]: in the data set “in vitro”, the viability at 28.5 h, 1 µM amounted to 95.1%; the viability at 28.5 h, 5 µM came out at 97.3%; the viability at 28.5 h, 10 µM was found to be 100%. Further, in data set [1], the activity at 1 µM came to 103%, the activity at 5 µM was found to be 26.5% and the activity at 10 µM is 14.3%. In addition, in data set [2], the activity at 1 µM was determined as 102%, the activity at 5 µM was 49.8% and the activity at 10 µM is 24.6%.
For `Cc1ccc(C(=O)NCCCN2CCC3(CC2)OCCc2c3[nH]c3ccccc23)cc1` [CBK113485], in the data set “in vitro”, the viability at 28.5 h, 1 µM came out at 86.4%; the viability at 28.5 h, 5 µM worked out at 88%; the viability at 28.5 h, 10 µM came to 78.1%. In data set [1], the activity at 1 µM was found to be 114%, the activity at 5 µM amounted to 80% and the activity at 10 µM was determined as 21.4%. For the same compound, in data set [2], the activity at 1 µM turned out to be 88.7%, the activity at 5 µM was 33.7% and the activity at 10 µM worked out at 5.52%.
`O=C(Nc1ccc(F)cc1)c1[nH]c2ccccc2c1NS(=O)(=O)c1cc(Cl)sc1Cl` [CBK050094]: in “in vitro”, the viability at 28.5 h, 1 µM was 90%; the viability at 28.5 h, 5 µM was found to be 96.8%; the viability at 28.5 h, 10 µM amounted to 86.9%. Moreover, in data set [1], the activity at 1 µM is 151%, the activity at 5 µM was 124% and the activity at 10 µM was 118%. Further, in data set [2], the activity at 1 µM is 126%, the activity at 5 µM was found to be 99.9% and the activity at 10 µM stood at 62.7%.
As to `O=C(NCCCn1ccnc1)c1cc(-c2ccc(Br)cc2)nc2ccccc12` [CBK262645], in the data set “in vitro”, the viability at 28.5 h, 1 µM is 103%; the viability at 28.5 h, 5 µM came to 107%; the viability at 28.5 h, 10 µM stood at 94.9%. Also, in data set [1], the activity at 1 µM turned out to be 138%, the activity at 5 µM is 87.8% and the activity at 10 µM came out at 31.9%. In data set [2], the activity at 1 µM is 126%, the activity at 5 µM stood at 95.8% and the activity at 10 µM worked out at 45.4%.
For `Cc1cc(C)c2c(N)c(C(=O)Nc3ccc(Br)cc3)sc2n1` [CBK072019], in the data set “in vitro”, the viability at 28.5 h, 1 µM worked out at 97.9%; the viability at 28.5 h, 5 µM was 98.9%; the viability at 28.5 h, 10 µM is 106%. For the same compound, in data set [1], the activity at 1 µM amounted to 107%, the activity at 5 µM worked out at 95.1% and the activity at 10 µM was 100%. In data set [2], the activity at 1 µM amounted to 98.4%, the activity at 5 µM is 59.7% and the activity at 10 µM came out at 91%.
As for `CCc1nnc(NS(=O)(=O)c2ccc(NC(=S)Nc3ccc(F)cc3)cc2)s1` [CBK050037], in the data set “in vitro”, the viability at 28.5 h, 1 µM was found to be 98.2%; the viability at 28.5 h, 5 µM is 89.3%; the viability at 28.5 h, 10 µM worked out at 93.2%. In data set [1], the activity at 1 µM is 72%, the activity at 5 µM was 22.8% and the activity at 10 µM worked out at 13.7%. For the same compound, in data set [2], the activity at 1 µM amounted to 98.5%, the activity at 5 µM was 26.5% and the activity at 10 µM was determined as 17.6%.
For `O=C(O)c1cn(C2CC2)c2cc(N3CCN(C(=O)C4CCCO4)CC3)c(F)cc2c1=O` (stereo not drawn) [CBK297139], in “in vitro”, the viability at 28.5 h, 1 µM is 97%; the viability at 28.5 h, 5 µM stood at 94.9%; the viability at 28.5 h, 10 µM is 114%. Besides, in data set [1], the activity at 1 µM is 96.1%, the activity at 5 µM is 15.3% and the activity at 10 µM worked out at 0.67%. Further, in data set [2], the activity at 1 µM was 46.9%, the activity at 5 µM is 12.4% and the activity at 10 µM stood at 6.62%.
Regarding `O=S(=O)(Nc1ccc(C(F)(F)F)cc1Cl)c1cc(Br)c(Cl)s1` [CBK057196], in the data set “in vitro”, the viability at 28.5 h, 1 µM stood at 90.4%; the viability at 28.5 h, 5 µM was 93.1%; the viability at 28.5 h, 10 µM came to 88.2%. In addition, in data set [1], the activity at 1 µM was determined as 142%, the activity at 5 µM amounted to 108% and the activity at 10 µM came to 69.6%. In data set [2], the activity at 1 µM was found to be 114%, the activity at 5 µM came to 75.1% and the activity at 10 µM was found to be 57.9%.
As for `Cc1cc(OCC(=O)Nc2ccc(S(=O)(=O)Nc3onc(C)c3C)cc2)cc(C)c1Cl` [CBK263491], in “in vitro”, the viability at 28.5 h, 1 µM stood at 103%; the viability at 28.5 h, 5 µM is 100%; the viability at 28.5 h, 10 µM amounted to 117%. Besides, in data set [1], the activity at 1 µM was 59.3%, the activity at 5 µM came to 15.2% and the activity at 10 µM came to 5.2%. In addition, in data set [2], the activity at 1 µM came out at 55.4%, the activity at 5 µM is 25.5% and the activity at 10 µM amounted to 11.8%.
For `CN(C)c1ccc(Nc2nc(NCCO)c3ccccc3n2)cc1` [CBK268392C], in “in vitro”, the viability at 28.5 h, 1 µM was determined as 95.3%; the viability at 28.5 h, 5 µM is 103%; the viability at 28.5 h, 10 µM was found to be 100%. Besides, in data set [1], the activity at 1 µM is 130%, the activity at 5 µM worked out at 4.94% and the activity at 10 µM came out at 6.78%. Also, in data set [2], the activity at 1 µM worked out at 69.7%, the activity at 5 µM was found to be 4.24% and the activity at 10 µM amounted to 0.899%.
As for `Cc1ccc2[nH]c(-c3cccc(NC(=O)c4cccc(CN5CCCC5=O)c4)c3)nc2c1` [CBK285838], in “in vitro”, the viability at 28.5 h, 1 µM turned out to be 93%; the viability at 28.5 h, 5 µM was determined as 83.3%; the viability at 28.5 h, 10 µM was 87.6%. Moreover, in data set [1], the activity at 1 µM was determined as 137%, the activity at 5 µM was determined as 94.9% and the activity at 10 µM was 34.2%. For the same compound, in data set [2], the activity at 1 µM was found to be 125%, the activity at 5 µM is 91.8% and the activity at 10 µM is 48.2%.
Regarding `CCNC(=O)N1CC2(CCN(Cc3nc4ccccc4[nH]3)CC2)c2ccccc21` [CBK126693], in “in vitro”, the viability at 28.5 h, 1 µM was found to be 100%; the viability at 28.5 h, 5 µM amounted to 94.1%; the viability at 28.5 h, 10 µM is 96.7%. Further, in data set [1], the activity at 1 µM amounted to 115%, the activity at 5 µM came out at 120% and the activity at 10 µM was 109%. In data set [2], the activity at 1 µM turned out to be 74.5%, the activity at 5 µM was determined as 89.8% and the activity at 10 µM turned out to be 65%.
For `Cc1cc(NS(=O)(=O)c2ccc(Nc3nc(-c4cccs4)cs3)cc2)no1` [CBK262504], in “in vitro”, the viability at 28.5 h, 1 µM is 86.5%; the viability at 28.5 h, 5 µM is 92.2%; the viability at 28.5 h, 10 µM stood at 88.4%. In data set [1], the activity at 1 µM was found to be 96.7%, the activity at 5 µM is 25.1% and the activity at 10 µM turned out to be 15.9%. For the same compound, in data set [2], the activity at 1 µM was found to be 112%, the activity at 5 µM amounted to 45.8% and the activity at 10 µM amounted to 19.5%.
`O=C(NCCCn1ccnc1)N1CCN(Cc2ccc(Cl)cc2)CC1` [CBK305894]: in “in vitro”, the viability at 28.5 h, 1 µM is 90.1%; the viability at 28.5 h, 5 µM was determined as 93.5%; the viability at 28.5 h, 10 µM stood at 89.5%. In data set [1], the activity at 1 µM stood at 143%, the activity at 5 µM came out at 148% and the activity at 10 µM is 147%. In data set [2], the activity at 1 µM came out at 118%, the activity at 5 µM was determined as 87% and the activity at 10 µM was 78.9%.
`Cn1cc(C(c2ccc(OCC(=O)O)cc2)c2cn(C)c3ccccc23)c2ccccc21` [CBK266403]: in “in vitro”, the viability at 28.5 h, 1 µM was 113%; the viability at 28.5 h, 5 µM came to 111%; the viability at 28.5 h, 10 µM was 115%. Further, in data set [1], the activity at 1 µM came out at 91%, the activity at 5 µM came out at 23.4% and the activity at 10 µM worked out at 9.15%. Moreover, in data set [2], the activity at 1 µM is 87.5%, the activity at 5 µM was 36% and the activity at 10 µM turned out to be 2.98%.
`Cc1cc(Br)ccc1C(=O)NCCc1c[nH]c2ccc(Cl)cc12` [CBK159771]: in “in vitro”, the viability at 28.5 h, 1 µM came out at 109%; the viability at 28.5 h, 5 µM was 106%; the viability at 28.5 h, 10 µM amounted to 108%. Moreover, in data set [1], the activity at 1 µM came out at 95.1%, the activity at 5 µM stood at 57.5% and the activity at 10 µM turned out to be 22.3%. Besides, in data set [2], the activity at 1 µM was 116%, the activity at 5 µM is 67.5% and the activity at 10 µM was determined as 47.4%.
`CCc1cc(-c2n[nH]cc2-c2nc(C)cs2)c(O)cc1OC` [CBK287934]: in “in vitro”, the viability at 28.5 h, 1 µM is 101%; the viability at 28.5 h, 5 µM came to 96.8%; the viability at 28.5 h, 10 µM came out at 94.8%. Besides, in data set [1], the activity at 1 µM amounted to 133%, the activity at 5 µM was found to be 62.2% and the activity at 10 µM came out at 7.47%. Moreover, in data set [2], the activity at 1 µM was found to be 87.9%, the activity at 5 µM was 31.5% and the activity at 10 µM came to 6.53%.
For the compound `COc1nccnc1NS(=O)(=O)c1ccc(Nc2c([N+](=O)[O-])cc([N+](=O)[O-])c3nonc23)cc1` [CBK261441], in “in vitro”, the viability at 28.5 h, 1 µM worked out at 90.8%; the viability at 28.5 h, 5 µM was 95.9%; the viability at 28.5 h, 10 µM is 94.2%. For the same compound, in data set [1], the activity at 1 µM came out at 33.2%, the activity at 5 µM was determined as 18% and the activity at 10 µM is 10.6%. In data set [2], the activity at 1 µM worked out at 42.6%, the activity at 5 µM was determined as 28.1% and the activity at 10 µM amounted to 24.2%.
